The text below walks through data of PubChem BioAssay (NCI).

Test systems include SF-539 CNS; LOX IMVI melanoma; HL-60(TB) leukemia; CAKI-1 renal; ACHN renal; SF-268 CNS; SF-295 CNS; SK-MEL-5 melanoma; OVCAR-3 ovarian; HT29 colon.
Holding throughout (experiment): NCI tumour cell line growth inhibition, 48 h

“And” between values parts separate entries of the source, which are not always exact repeats. Equal entries are not always repeated.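 48-hour exposure; five concentrations; linearly interpolated endpoints. GI50 marks 50% less growth. TGI marks complete inhibition of growth.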

Regarding `CC1/C=C/C=C/CC/C=C/C=C/C=C/C=C/C(OC2OC(C)C(O)C(N)C2O)CC2OC(CC(O)C(O)CCC(O)CC(O)CC(O)CC(=O)OC(C)C(C)C1O)CC(O)C2C(=O)O` (centres undefined), the GI50 with SF-539 CNS was 28 µg/mL; in the experiment with LOX IMVI melanoma, 24.1 µg/mL; in the experiment with CAKI-1 renal, 23.5 µg/mL; with ACHN renal it was 22.8 µg/mL; in the experiment on SF-268 CNS it was 33.9 µg/mL; in the experiment with SF-295 CNS, 46.2 µg/mL. Moreover, the GI50 in the experiment with SK-MEL-5 melanoma was 47.3 µg/mL; with OVCAR-3 ovarian, 101 µg/mL; in the experiment with HT29 colon, 37.2 µg/mL. Also, the TGI was 32.3 µM and 64.1 µg/mL in the experiment with SF-539 CNS; 33.1 µM and 47.9 µg/mL with LOX IMVI melanoma; 45.1 µM with HL-60(TB) leukemia; 31.8 µM and 44.5 µg/mL in the experiment on CAKI-1 renal; 32.3 µM and 42.7 µg/mL in the experiment on ACHN renal; 56.9 µM and 70.7 µg/mL with SF-268 CNS. Moreover, the TGI with SF-295 CNS is 45.7 µM and 108 µg/mL; with SK-MEL-5 melanoma, 58.9 µM and 150 µg/mL; in the experiment on OVCAR-3 ovarian, 37.2 µM and 150 µg/mL; in the experiment on HT29 colon it was 32.8 µM and 84.8 µg/mL.

On to `O=C(CCl)Nc1ccccc1SCc1cc(Cl)cc2c1OCOC2`, for which the GI50 is 15.3 µM in the experiment on SF-539 CNS; 2.16 µM with LOX IMVI melanoma; 2.15 µM with HL-60(TB) leukemia; 5.5 µM in the experiment on CAKI-1 renal; 10.6 µM in the experiment on ACHN renal; 7.14 µM in the experiment on SF-268 CNS. In addition, the GI50 with SF-295 CNS is 20 µM; with SK-MEL-5 melanoma, 4.09 µM; in the experiment on OVCAR-3 ovarian, 2.08 µM; in the experiment on HT29 colon, 4.27 µM. Further, the TGI amounted to 28.7 µM in the experiment with SF-539 CNS; 5.1 µM in the experiment with LOX IMVI melanoma; 4.31 µM with HL-60(TB) leukemia; 32.6 µM in the experiment on CAKI-1 renal; 23.8 µM with ACHN renal; 23.5 µM in the experiment with SF-268 CNS. In addition, the TGI in the experiment on SF-295 CNS stood at 41.9 µM; in the experiment on SK-MEL-5 melanoma, 16.4 µM; in the experiment with OVCAR-3 ovarian it was 4.24 µM; in the experiment with HT29 colon it was 14.5 µM.

For `CN(OC(=O)CC(=O)c1ccccc1)C(=O)Cc1ccccc1`, the TGI with SF-539 CNS, with LOX IMVI melanoma, in the experiment on HL-60(TB) leukemia, in the experiment with CAKI-1 renal, in the experiment on ACHN renal and in the experiment on SF-268 CNS was greater than 100 µM throughout. The TGI in the experiment on SF-295 CNS, in the experiment on SK-MEL-5 melanoma, with OVCAR-3 ovarian and in the experiment on HT29 colon was greater than 100 µM each time.
